Test results published in article PMC9569971, “New Oxazolo[5,4-d]pyrimidines as Potential Anticancer Agents: Their Design, Synthesis, and In Vitro Biological Activity Research” (International Journal of Molecular Sciences, 2022).

Assays:
[1] = MTT viability assay, L929; assay type: cell-based, murine; settings: mouse, L929 fibroblasts, tested 1–500 µM
[2] = MTT viability assay, NHDF; assay type: cell-based, human; settings: human, normal human dermal fibroblasts (NHDF), tested 1–500 µM
[3] = test system: lung adenocarcinoma (A549); experiment: MTT viability assay, A549; assay type: cell-based, human
[4] = test system: breast adenocarcinoma (MCF7); experiment: MTT viability assay, MCF7; assay type: cell-based, human; settings: Homo sapiens; MCF7, MTT, tested 1–500 µM
[5] = test system: metastatic colon adenocarcinoma (LoVo); experiment: MTT viability assay, LoVo; assay type: cell-based, human
Method: When the confluence was greater than 70%, adherent cell lines were detached from the bottle surface with a TrypLE solution and then used in assays or reduced. The cells were collected into centrifuge tubes and centrifuged at 1000× g for 5 min at room temperature. The supernatant was removed to dry. The cell pellets were then resuspended in an appropriate medium. The cells were counted using a Bürker chamber and resuspended in 96-well plates to a cell density of 10,000 cells per well for MTT assay. For the rhodamine accumulation test and the detection of apoptosis assay, cells were seeded at a density of 30,000 per well. In the migration assay, cells were seeded at a density of 20,000 per well, and monolayer formation was awaited.
In this study, normal human dermal fibroblasts (NHDFs), breast cancer cells (MCF7), human lung adenocarcinoma cells (A549), murine fibroblasts (L929), colon adenocarcinoma cells (HT29), and colorectal adenocarcinoma cells (LoVo) were used. All cell lines were cultured in the recommended media. […] The human lung adenocarcinoma cell line A549 and breast cancer cell line MCF-7 were obtained from the ECACC. These cell lines were cultured in Eagle’s minimal essential medium (MEM). Murine fibroblast L929 (Sigma-Aldrich, Merck Group, Headquarters, Darmstadt, Germany; the European Collection of Authenticated Cell Cultures—ECACC) cells were grown in DMEM. […] All media were supplemented with 10% FBS and 100 µg/mL of penicillin–streptomycin.
All compounds were dissolved in DMSO and the reference drugs were dissolved in physiological saline to concentrations of 10 mM. Concentrations from 1 to 500 μM in the media recommended for the cell lines were prepared for the tests.
All of the synthesized derivatives were evaluated via the MTT assay. All cell lines were seeded into 96-well plates at a density of 10,000 cells per well. To allow the cells to adhere to the surface of the plates, they were incubated overnight before the application of the test compounds. […] The tests were performed for concentrations of 1, 5, 10, 25, 50, 100, 250, and 500 μM. The solutions of the test compounds were removed from the culture on the 96-well plates. […] The supernatant was then removed. The violet crystal was dissolved in isopropanol for 30 min by shaking. Absorbance was measured at 570 nm.
Biological assays were performed in three independent replicates, and each replicate used four samples. Three repetitions were made for the ELISA determinations. For the assessment of cytotoxicity, mathematical models were developed using the GraphPad PRISM software, based on which CC50 was determined. The values of CC50 were estimated based on nonlinear regression using the dependence of the biological effect on the molar concentrations of the compounds (four-parameter logistic model with Hill slope).

[6] = test system: primary colon adenocarcinoma (HT29); experiment: MTT viability assay, HT29; assay type: cell-based, human; settings: for CC50: tested 1–500 µM
[7] = test system: HT29 primary colon adenocarcinoma cells; experiment: Detection of apoptosis (Annexin V FITC / propidium iodide); assay type: cell-based, human; set-up: unit not given here; settings: 24 h
Summary of the method: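 After 24 h growth at 30,000 cells/well, HT29 cells were treated with compound at 1, 2, 5 and 10 µM for 24 h. They were then stained with Annexin V-FITC/propidium iodide in PBS with Mg²⁺/Ca²⁺ for 20 min at 37 °C.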

Q: What does the source list for `Cc1noc(N)c1-c1nc2c(NCCCN(C)C)ncnc2o1` [Compound 3g, 2-(5-Amino-3-methylisoxazol-4-yl)-7-N-[3-(N,N-dimethylamino)propyl]aminooxazolo[5,4-d]pyrimidine]?
A: CC50 [1]: 83.7 ± 4.42 µM; CC50 [2]: 156 ± 15.5 µM; SI (selectivity index) ([3]; CC50 NHDF / CC50 A549): 1.123; CC50 ([3]; Homo sapiens, A549, MTT, tested 1–500 µM): 138 ± 12.9 µM; CC50 [4]: 209 ± 9.67 µM; SI (selectivity index) ([5]; CC50 NHDF / CC50 LoVo): 0.695; CC50 ([5]; Homo sapiens, LoVo, MTT, tested 1–500 µM): 224 ± 17.1 µM; SI (selectivity index) ([6]; CC50 NHDF / CC50 HT29): 2.662; CC50 ([6]; HT29, MTT): 58.4 ± 8.75 µM; CC50 ([6]; Homo sapiens, HT-29, HT29, MTT): 58.4 µM; apoptosis mean ([7]; 1 μM): 3.74; late apoptosis mean ([7]; 1 μM): 8.08; necrosis mean ([7]; 1 μM): 11.28; percent live (viable) cells ([7]; 1 μM): 76.90; apoptosis mean ([7]; 2 μM): 9.72; late apoptosis mean ([7]; 2 μM): 9.30; necrosis mean ([7]; 2 μM): 6.34; percent live (viable) cells ([7]; 2 μM): 74.65; apoptosis mean ([7]; 5 μM): 51.54; late apoptosis mean ([7]; 5 μM): 23.48; necrosis mean ([7]; 5 μM): 1.18; percent live (viable) cells ([7]; 5 μM): 23.81; apoptosis mean ([7]; 10 μM): 45.24; late apoptosis mean ([7]; 10 μM): 29.23; necrosis mean ([7]; 10 μM): 0.90; percent live (viable) cells ([7]; 10 μM): 24.62
